These results are taken from paper doi:10.1101/2023.02.14.528348v1, “Plasticity of the binding pocket in peptide transporters underpins promiscuous substrate recognition” (biorxiv, 2023).

As a reminder, the IC50 is the concentration at which inhibition is half-maximal. As a reminder, the Ki is a dissociation constant, usually derived from enzyme kinetics or from competition with a known ligand. Lower therefore signals a stronger hold on the target. As usually defined, the Kd is the free concentration of one partner at which half of the binding sites on the other are occupied at equilibrium, for simple one-to-one binding.

Assay [1] addresses T1, DtpB (Escherichia coli, UniProt P36837).
T1 construct: purified membrane protein; reconstituted in liposomes for transport; Nb132 complex for crystals; host, tags and borders only in supplement
T1 sequence (P36837 1-489): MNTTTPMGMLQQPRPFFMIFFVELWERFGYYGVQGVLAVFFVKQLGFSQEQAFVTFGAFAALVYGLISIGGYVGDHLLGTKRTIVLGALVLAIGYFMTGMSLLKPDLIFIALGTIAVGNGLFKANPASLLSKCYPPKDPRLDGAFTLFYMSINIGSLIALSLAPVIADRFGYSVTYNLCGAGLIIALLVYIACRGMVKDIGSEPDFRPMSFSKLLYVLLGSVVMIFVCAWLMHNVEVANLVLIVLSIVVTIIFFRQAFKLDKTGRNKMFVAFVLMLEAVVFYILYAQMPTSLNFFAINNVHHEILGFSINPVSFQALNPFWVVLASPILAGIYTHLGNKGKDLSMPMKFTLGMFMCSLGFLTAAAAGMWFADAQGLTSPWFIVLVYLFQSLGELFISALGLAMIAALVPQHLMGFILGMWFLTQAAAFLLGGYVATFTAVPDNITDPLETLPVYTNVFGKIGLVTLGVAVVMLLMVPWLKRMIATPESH
In words: thermal unfolding titration, irreversible kinetic (Hall) model; also co-crystal structure. The following applies: purified protein. In kind it is binding.

Assay [2] has as its target T1, DtpB. In words: inhibition of AA transport, pyranine fluorescence assay in proteoliposomes. In kind it is biochemical.
Assay [3] deals with T1, DtpB. Described as above. In kind it is biochemical. This is another data set of the same source.
The target of assay [4] is T1, DtpB. In words: thermal unfolding titration, irreversible kinetic (Hall) model. In kind it is binding.
In assay [5] the target is T1, DtpB. The assay is described as follows: X-ray crystal structure of complex. The following applies: crystallised with nanobody Nb132; inward-facing open; central cavity. In kind it is binding.

Structures are written as SMILES. Marks after values point to notes of the source that are not given here. Residues, ends and D or L forms follow the SMILES beside them.

On to `C[C@H](N)C(=O)N[C@@H](Cc1ccccc1)C(=O)O` [AF, Ala-Phe], for which, in assay [1], the KD entry was “Peptide affinity is color-coded with AF having the highest affinity”. The molecule also gave an IC50 in assay [2] of 2370 ± 680 µM. For the same molecule, the Ki in assay [3] amounted to 250 ± 80 µM. In assay [4], `N[C@@H](CO)C(=O)N[C@@H](Cc1c[nH]cn1)C(=O)O` [SH] (H-Ser-His-OH) registered a dissociation constant Kd of 352 ± 38 µM. `C[C@H](N)C(=O)N[C@@H](Cc1c[nH]cn1)C(=O)O` [AH] (H-Ala-His-OH): in assay [4], the Kd was determined as 100 ± 40 µM.

Regarding `CC(C)[C@H](NC(=O)[C@@H](N)CCCCN)C(=O)O` [KV, Lys-Val] (H-Lys-Val-OH), the “X-ray crystal structure of complex” value in assay [5] was “Q34 interacts with the ε-amino group of K1* in KV”.

On to `CC[C@H](C)[C@H](NC(=O)[C@H](C)N)C(=O)O` [AI, Ala-Ile] (H-Ala-Ile-OH), for which, in assay [5], the “X-ray crystal structure of complex” value is “Structure of DtpB bound to nanobody Nb132 and the dipeptide AI”.

In assay [4], `C[C@H](N)C(=O)N[C@@H](CCCCN)C(=O)O` [AK] (H-Ala-Lys-OH) displayed a Kd of 1770 ± 90 µM.

The molecule `O=C(O)[C@H](Cc1ccc(O)cc1)NC(=O)[C@@H]1CCCN1` [PY] (H-Pro-Tyr-OH) registered a Kd in assay [4] of 206 ± 126 µM.
